The results in this text go back to patent publication US9125913B2, “Bcl-2-selective apoptosis-inducing agents for the treatment of cancer and immune diseases” (AbbVie Inc., priority 2008, dated 2015).

This experiment deals with GST-Bcl-2. As to the kind of experiment: TR-FRET binding assay, Bcl-2. The settings on record: TR-FRET Ki values. The procedure, abridged: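 Ki values come from Wang's competitive-binding equation applied to TR-FRET signal (excitation 340/35 nm; emission 520/525 nm F-Bak peptide, 495/510 nm Tb antibody). Protein, probe and antibody incubated with compound 3 h at room temperature; dilution series began at 50 μM as 2× stock in 10% DMSO.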
(In TR-FRET formats the signal depends on donor and acceptor labels being close together.)
For the compound `CC1(C)CCC(CN2CCN(c3ccc(C(=O)NS(=O)(=O)c4ccc(NC5CCN(C6CC6)CC5)c([N+](=O)[O-])c4)c(Oc4cccc5[nH]cnc45)c3)CC2)=C(c2ccc(Cl)cc2)C1` [EXAMPLE 451, 2-(1H-benzimidazol-4-yloxy)-4-(4-{[2-(4-chlorophenyl)-4,4-dimethylcyclohex-1-en-1-yl]methyl}piperazin-1-yl)-N-({4-[(1-cyclopropylpiperidin-4-yl)amino]-3-nitrophenyl}sulfonyl)benzamide], the “Binding selectivity ratio (Bcl-XL Ki/Bcl-2 Ki)” value (“Binding selectivity ratio” below) is 359.92.
Turning to `CN1CCN(Nc2ccc(S(=O)(=O)NC(=O)c3ccc(N4CCN(CC5=C(c6ccc(Cl)cc6)CC(C)(C)CC5)CC4)cc3Oc3cccc4[nH]ccc34)cc2[N+](=O)[O-])CC1` [EXAMPLE 190, 4-(4-{[2-(4-chlorophenyl)-4,4-dimethylcyclohex-1-en-1-yl]methyl}piperazin-1-yl)-2-(1H-indol-4-yloxy)-N-({4-[(4-methylpiperazin-1-yl)amino]-3-nitrophenyl}sulfonyl)benzamide], the “Binding selectivity ratio” value is given as 189.6.
In the case of `CC1(C)CCC(c2ccc(Cl)cc2)=C(CN2CCN(c3ccc(C(=O)NS(=O)(=O)c4ccc(NCCCN5CCOCC5)c([N+](=O)[O-])c4)c(Oc4ccc5[nH]ccc5c4)c3)CC2)C1` [Example 50, 4-(4-{[2-(4-chlorophenyl)-5,5-dimethylcyclohex-1-en-1-yl]methyl}piperazin-1-yl)-2-(1H-indol-5-yloxy)-N-({4-[(3-morpholin-4-ylpropyl)amino]-3-nitrophenyl}sulfonyl)benzamide], the “Binding selectivity ratio” value is given as 191.2.
In the case of `CC1(C)CCC(CN2CCN(c3ccc(C(=O)NS(=O)(=O)c4ccc(NC5CCN(CCCO)CC5)c([N+](=O)[O-])c4)c(Oc4cccc5[nH]ccc45)c3)CC2)=C(c2ccc(Cl)cc2)C1` [EXAMPLE 195, 4-(4-{[2-(4-chlorophenyl)-4,4-dimethylcyclohex-1-en-1-yl]methyl}piperazin-1-yl)-N-[(4-{[1-(3-hydroxypropyl)piperidin-4-yl]amino}-3-nitrophenyl)sulfonyl]-2-(1H-indol-4-yloxy)benzamide], the “Binding selectivity ratio” value is 170.2.
For `CN(C)CCOc1cccc(-c2ccc(Cl)cc2)c1CN1CCN(c2ccc(C(=O)NS(=O)(=O)c3ccc(NC4CCN(C)CC4)c([N+](=O)[O-])c3)c(Oc3cccc4[nH]ccc34)c2)CC1` [EXAMPLE 205, 4-[4-({4′-chloro-3-[2-(dimethylamino)ethoxy]-1,1′-biphenyl-2-yl}methyl)piperazin-1-yl]-2-(1H-indol-4-yloxy)-N-({4-[(1-methylpiperidin-4-yl)amino]-3-nitrophenyl}sulfonyl)benzamide], the “Binding selectivity ratio” value stood at 658.6.
The same measure for `COCCNc1ccc(S(=O)(=O)NC(=O)c2ccc(N3CCN(CC4=C(c5ccc(Cl)cc5)CC(C)(C)CC4)CC3)cc2Oc2cccc3[nH]ccc23)cc1[N+](=O)[O-]` [EXAMPLE 239, 4-(4-{[2-(4-chlorophenyl)-4,4-dimethylcyclohex-1-en-1-yl]methyl}piperazin-1-yl)-2-(1H-indol-4-yloxy)-N-({4-[(2-methoxyethyl)amino]-3-nitrophenyl}sulfonyl)benzamide]: 430.9; for `CC1(C)CCC(CN2CCN(c3ccc(C(=O)NS(=O)(=O)c4ccc(NCCCN5CCS(=O)(=O)CC5)c([N+](=O)[O-])c4)c(Oc4ccc5[nH]ccc5c4)c3)CC2)=C(c2ccc(Cl)cc2)C1` [EXAMPLE 266, 4-(4-{[2-(4-chlorophenyl)-4,4-dimethylcyclohex-1-en-1-yl]methyl}piperazin-1-yl)-N-[(4-{[3-(1,1-dioxidothiomorpholin-4-yl)propyl]amino}-3-nitrophenyl)sulfonyl]-2-(1H-indol-5-yloxy)benzamide]: above 3607.7; for `CC1(C)CCC(CN2CCN(c3ccc(C(=O)NS(=O)(=O)c4ccc(NC5CCN(CCO)CC5)c([N+](=O)[O-])c4)c(Oc4cccc5[nH]ccc45)c3)CC2)=C(c2ccc(Cl)cc2)C1` [EXAMPLE 191, 4-(4-{[2-(4-chlorophenyl)-4,4-dimethylcyclohex-1-en-1-yl]methyl}piperazin-1-yl)-N-[(4-{[1-(2-hydroxyethyl)piperidin-4-yl]amino}-3-nitrophenyl)sulfonyl]-2-(1H-indol-4-yloxy)benzamide]: 125.2.
On to `CC1(C)CCC(CN2CCN(c3ccc(C(=O)NS(=O)(=O)c4cnc(NCC5(F)CCOCC5)c(Cl)c4)c(Oc4cccc5[nH]ncc45)c3)CC2)=C(c2ccc(Cl)cc2)C1` [EXAMPLE 413, N-[(5-chloro-6-{[(4-fluorotetrahydro-2H-pyran-4-yl)methyl]amino}pyridin-3-yl)sulfonyl]-4-(4-{[2-(4-chlorophenyl)-4,4-dimethylcyclohex-1-en-1-yl]methyl}piperazin-1-yl)-2-(1H-indazol-4-yloxy)benzamide], for which the “Binding selectivity ratio” value is 803.8.
Consider `CC1(C)CCC(CN2CCN(c3ccc(C(=O)NS(=O)(=O)c4ccc(NCCN5CCNC(=O)C5)c([N+](=O)[O-])c4)c(Oc4ccc5[nH]ccc5c4)c3)CC2)=C(c2ccc(Cl)cc2)C1` [EXAMPLE 273, 4-(4-{[2-(4-chlorophenyl)-4,4-dimethylcyclohex-1-en-1-yl]methyl}piperazin-1-yl)-2-(1H-indol-5-yloxy)-N-[(3-nitro-4-{[2-(3-oxopiperazin-1-yl)ethyl]amino}phenyl)sulfonyl]benzamide], for which the “Binding selectivity ratio” value is on record as 2396.1.
As to `CC1(C)CCC(CN2CCN(c3ccc(C(=O)NS(=O)(=O)c4cnc(OCC5(F)CCOCC5)c(C#N)c4)c(Oc4ccc5[nH]ccc5c4)c3)CC2)=C(c2ccc(Cl)cc2)C1` [EXAMPLE 385, 4-(4-{[2-(4-chlorophenyl)-4,4-dimethylcyclohex-1-en-1-yl]methyl}piperazin-1-yl)-N-({5-cyano-6-[(4-fluorotetrahydro-2H-pyran-4-yl)methoxy]pyridin-3-yl}sulfonyl)-2-(1H-indol-5-yloxy)benzamide], the “Binding selectivity ratio” value came to 2096.5.
The same measure for `CC1(C)CCC(CN2CCN(c3ccc(C(=O)NS(=O)(=O)c4cnc(OCC5CCOCC5)c(C#N)c4)c(Oc4cccc5[nH]ccc45)c3)CC2)=C(c2ccc(Cl)cc2)C1` [EXAMPLE 386, 4-(4-{[2-(4-chlorophenyl)-4,4-dimethylcyclohex-1-en-1-yl]methyl}piperazin-1-yl)-N-{[5-cyano-6-(tetrahydro-2H-pyran-4-ylmethoxy)pyridin-3-yl]sulfonyl}-2-(1H-indol-4-yloxy)benzamide]: 494.5.
In the case of `CN1CCC(Nc2ccc(S(=O)(=O)NC(=O)c3ccc(N4CCN(Cc5cc(OCCO)ccc5-c5ccc(Cl)cc5)CC4)cc3Oc3cccc4[nH]ccc34)cc2[N+](=O)[O-])CC1` [EXAMPLE 221, 4-(4-{[4′-chloro-4-(2-hydroxyethoxy)-1,1′-biphenyl-2-yl]methyl}piperazin-1-yl)-2-(1H-indol-4-yloxy)-N-({4-[(1-methylpiperidin-4-yl)amino]-3-nitrophenyl}sulfonyl)benzamide], the “Binding selectivity ratio” value is 3005.2.
With `CC1(C)CCC(CN2CCN(c3ccc(C(=O)NS(=O)(=O)c4ccc(OCC5(F)CCOCC5)c([N+](=O)[O-])c4)c(Oc4cccc5[nH]ccc45)c3)CC2)=C(c2ccc(Cl)cc2)C1` [EXAMPLE 306, 4-(4-{[2-(4-chlorophenyl)-4,4-dimethylcyclohex-1-en-1-yl]methyl}piperazin-1-yl)-N-({4-[(4-fluorotetrahydro-2H-pyran-4-yl)methoxy]-3-nitrophenyl}sulfonyl)-2-(1H-indol-4-yloxy)benzamide], the “Binding selectivity ratio” value was 622.
